Assay: xn = mol fraction of the nth substance listed

CC(C)O + CO
298.15 K, 101.33 kPa
Conditions | viscosity [mPa·s]
x2 = 0.0893 | 1.891
x2 = 0.225 | 1.625
x2 = 0.2835 | 1.518
x2 = 0.3984 | 1.332
x2 = 0.5178 | 1.16
x2 = 0.6024 | 1.051
x2 = 0.6852 | 0.945
x2 = 0.8272 | 0.772
x2 = 0.9058 | 0.675

Cc1ccccc1[N+](=O)[O-] + CO
298.15 K, 101 kPa
Conditions | viscosity [mPa·s]
x1 = 0.0021 | 0.5422
x1 = 0.0086 | 0.55
x1 = 0.0163 | 0.5579
x1 = 0.0287 | 0.5756
x1 = 0.0599 | 0.621
x1 = 0.0842 | 0.6536
x1 = 0.148 | 0.7466
x1 = 0.1606 | 0.7653
x1 = 0.2493 | 0.894
x1 = 0.2659 | 0.919
x1 = 0.3726 | 1.075
x1 = 0.4073 | 1.119
x1 = 0.4479 | 1.172
x1 = 0.5681 | 1.334
x1 = 0.6575 | 1.457
x1 = 0.7936 | 1.656
x1 = 0.8543 | 1.76
x1 = 0.9606 | 1.982

O=C(O)c1cccc([N+](=O)[O-])c1 + CO
viscosity [mPa·s], 101 kPa
Conditions | x1 = 0.0362 | x1 = 0.0466 | x1 = 0.0506 | x1 = 0.0604 | x1 = 0.09126 | x1 = 0.1046
308.15 K | 0.8055 | 0.9203 | 0.9556 | – | 1.889 | 2.773
313.15 K | – | – | – | – | 1.727 | 2.425
318.15 K | – | – | – | – | 1.573 | 2.262
323.15 K | 0.646 | 0.7331 | 0.7603 | 0.8441 | 1.421 | 2.026

CCOC(=O)c1ccccc1 + COCCO
viscosity [mPa·s], 101 kPa
Conditions | x2 = 0.1045 | x2 = 0.199 | x2 = 0.2979 | x2 = 0.4016 | x2 = 0.5007 | x2 = 0.6025 | x2 = 0.6973 | x2 = 0.7982 | x2 = 0.8977
298.15 K | 1.883 | 1.824 | 1.803 | 1.757 | 1.774 | 1.752 | 1.773 | 1.761 | 1.783
303.15 K | 1.703 | 1.65 | 1.631 | 1.587 | 1.598 | 1.581 | 1.592 | 1.581 | 1.602
308.15 K | 1.55 | 1.501 | 1.48 | 1.441 | 1.448 | 1.431 | 1.439 | 1.431 | 1.444

CCOC(C)(C)C + COCCO
viscosity [mPa·s], 101 kPa
Conditions | 293.15 K | 298.15 K | 303.15 K
x1 = 0.0501 | 1.598 | 1.452 | 1.327
x1 = 0.1 | 1.493 | 1.361 | 1.246
x1 = 0.1508 | 1.386 | 1.267 | 1.164
x1 = 0.2 | 1.291 | 1.183 | 1.089
x1 = 0.2512 | 1.198 | 1.1 | 1.015
x1 = 0.299 | 1.118 | 1.029 | 0.951
x1 = 0.3489 | 1.041 | 0.961 | 0.89
x1 = 0.4 | 0.971 | 0.898 | 0.834
x1 = 0.4503 | 0.909 | 0.842 | 0.784
x1 = 0.499 | 0.854 | 0.793 | 0.74
x1 = 0.55 | 0.803 | 0.748 | 0.7
x1 = 0.61 | 0.75 | 0.7 | 0.657
x1 = 0.6599 | 0.711 | 0.665 | 0.625
x1 = 0.7 | 0.682 | 0.639 | 0.602
x1 = 0.7511 | 0.649 | 0.61 | 0.575
x1 = 0.8 | 0.621 | 0.584 | 0.552
x1 = 0.8489 | 0.595 | 0.561 | 0.532
x1 = 0.9 | 0.571 | 0.54 | 0.512
x1 = 0.949 | 0.55 | 0.521 | 0.495

CCOC(=O)c1ccccc1 + COCCOCCOC
viscosity [mPa·s], 101.33 kPa
Conditions | x2 = 0.1021 | x2 = 0.2028 | x2 = 0.3004 | x2 = 0.4044 | x2 = 0.5041 | x2 = 0.6032 | x2 = 0.7035 | x2 = 0.8017 | x2 = 0.9022
298.15 K | 1.805 | 1.694 | 1.59 | 1.485 | 1.389 | 1.301 | 1.216 | 1.134 | 1.056
303.15 K | 1.629 | 1.533 | 1.442 | 1.35 | 1.266 | 1.189 | 1.111 | 1.039 | 0.967
308.15 K | 1.476 | 1.39 | 1.311 | 1.231 | 1.157 | 1.088 | 1.02 | 0.957 | 0.895
313.15 K | 1.342 | 1.268 | 1.198 | 1.126 | 1.062 | 1 | 0.94 | 0.883 | 0.829
318.15 K | 1.228 | 1.161 | 1.098 | 1.035 | 0.976 | 0.922 | 0.868 | 0.818 | 0.77

CCC(C)CO (stereo unspecified) + COc1ccccc1
viscosity [mPa·s], 101.33 kPa
Conditions | x2 = 0.1005 | x2 = 0.2004 | x2 = 0.3003 | x2 = 0.4012 | x2 = 0.5001 | x2 = 0.6005 | x2 = 0.6996 | x2 = 0.8001 | x2 = 0.9003
303.15 K | 2.761 | 2.126 | 1.665 | 1.347 | 1.149 | 1.032 | 0.968 | 0.932 | 0.912
313.15 K | 2.026 | 1.601 | 1.296 | 1.084 | 0.952 | 0.868 | 0.824 | 0.803 | 0.794
323.15 K | 1.552 | 1.246 | 1.022 | 0.872 | 0.784 | 0.739 | 0.718 | 0.707 | 0.698

CCOC(=O)c1ccccc1 + COc1ccccc1
viscosity [mPa·s], 101 kPa
Conditions | x1 = 0.0786 | x1 = 0.1616 | x1 = 0.2448 | x1 = 0.3356 | x1 = 0.4336 | x1 = 0.5357 | x1 = 0.6386 | x1 = 0.7505 | x1 = 0.8709
303.15 K | 0.973 | 1.026 | 1.085 | 1.156 | 1.229 | 1.323 | 1.416 | 1.521 | 1.631
308.15 K | 0.896 | 0.949 | 1.007 | 1.071 | 1.143 | 1.224 | 1.311 | 1.404 | 1.504
313.15 K | 0.805 | 0.856 | 0.908 | 0.963 | 1.026 | 1.101 | 1.174 | 1.256 | 1.342

COC(=O)c1ccccc1O + CS(C)=O
303.15 K, 101 kPa
Conditions | viscosity [mPa·s]
x1 = 0.1215 | 1.932
x1 = 0.1918 | 2.13
x1 = 0.2697 | 2.186
x1 = 0.3567 | 2.283
x1 = 0.5628 | 2.356
x1 = 0.6882 | 2.38
x1 = 0.8323 | 2.403

O=C(O)/C=C\C(=O)O + C[N+](C)(C)CCO.[Cl-]
viscosity [mPa·s], 101.3 kPa
Conditions | 293.2 K | 303.2 K | 313.2 K
x2 = 0.49 | – | 8065 | 4196
x2 = 0.597 | 7984 | 4891 | 2579
x2 = 0.669 | 4183 | 2672 | 1488

Cc1cccc([N+](=O)[O-])c1 + Cc1ccc(C)cc1
308.15 K, 101.33 kPa
Conditions | viscosity [mPa·s]
x2 = 0.1004 | 1.322
x2 = 0.2046 | 1.122
x2 = 0.2963 | 1.004
x2 = 0.4016 | 0.908
x2 = 0.4954 | 0.846
x2 = 0.6076 | 0.768
x2 = 0.7023 | 0.706
x2 = 0.8036 | 0.649
x2 = 0.8975 | 0.6

Cc1ccccc1[N+](=O)[O-] + Cc1ccc(C)cc1
308.15 K, 101.33 kPa
Conditions | viscosity [mPa·s]
x2 = 0.1044 | 1.342
x2 = 0.2016 | 1.153
x2 = 0.2968 | 1.034
x2 = 0.4024 | 0.942
x2 = 0.4938 | 0.879
x2 = 0.6032 | 0.81
x2 = 0.6951 | 0.754
x2 = 0.8009 | 0.681
x2 = 0.8955 | 0.624

Cc1cccc([N+](=O)[O-])c1 + Cc1cccc(C)c1
308.15 K, 101.33 kPa
Conditions | viscosity [mPa·s]
x2 = 0.1017 | 1.33
x2 = 0.2062 | 1.133
x2 = 0.3032 | 1.014
x2 = 0.4055 | 0.926
x2 = 0.5001 | 0.861
x2 = 0.6028 | 0.785
x2 = 0.6999 | 0.72
x2 = 0.8043 | 0.653
x2 = 0.9007 | 0.59

Cc1ccccc1[N+](=O)[O-] + Cc1cccc(C)c1
308.15 K, 101.33 kPa
Conditions | viscosity [mPa·s]
x2 = 0.1014 | 1.358
x2 = 0.2022 | 1.154
x2 = 0.3044 | 1.027
x2 = 0.4036 | 0.938
x2 = 0.499 | 0.87
x2 = 0.6052 | 0.792
x2 = 0.6913 | 0.735
x2 = 0.8068 | 0.654
x2 = 0.8993 | 0.596

CCCCCN + Cc1ccccc1
303.15 K, 101 kPa
Conditions | viscosity [mPa·s]
x2 = 0.1128 | 0.556
x2 = 0.2313 | 0.5323
x2 = 0.3808 | 0.5104
x2 = 0.4933 | 0.5008
x2 = 0.5377 | 0.4969
x2 = 0.6473 | 0.4932
x2 = 0.7388 | 0.4938
x2 = 0.8447 | 0.4984
x2 = 0.9229 | 0.5071

CCOC(=O)c1ccccc1 + Cc1ccccc1
viscosity [mPa·s], 101 kPa
Conditions | 298.15 K | 303.15 K | 313.15 K
x1 = 0.0488 | – | 0.577 | 0.504
x1 = 0.1223 | – | 0.652 | 0.562
x1 = 0.1524 | 0.6845 | – | –
x1 = 0.1712 | – | 0.701 | 0.601
x1 = 0.2201 | – | 0.749 | 0.637
x1 = 0.2923 | – | 0.823 | 0.694
x1 = 0.3425 | – | 0.875 | 0.734
x1 = 0.3548 | 0.9076 | – | –
x1 = 0.4176 | – | 0.954 | 0.795
x1 = 0.4918 | – | 1.035 | 0.858
x1 = 0.5675 | – | 1.123 | 0.926
x1 = 0.63 | 1.279 | – | –
x1 = 0.6436 | – | 1.22 | 1.001
x1 = 0.7352 | 1.452 | – | –
x1 = 0.7452 | – | 1.359 | 1.109
x1 = 0.8194 | – | 1.473 | 1.198
x1 = 0.8445 | 1.655 | – | –
x1 = 0.8969 | – | 1.605 | 1.312
x2 = 0.2273 | 1.495 | – | –
x2 = 0.5945 | 0.939 | – | –
x2 = 0.8392 | 0.679 | – | –

Cc1cccc([N+](=O)[O-])c1 + Cc1ccccc1
303.15 K, 101.33 kPa
Conditions | viscosity [mPa·s]
x1 = 0.201 | 0.63
x1 = 0.406 | 0.8
x1 = 0.603 | 1
x1 = 0.8 | 1.33

Cc1cccc([N+](=O)[O-])c1 + Cc1ccccc1C
308.15 K, 101.33 kPa
Conditions | viscosity [mPa·s]
x2 = 0.1044 | 1.384
x2 = 0.2068 | 1.211
x2 = 0.2995 | 1.102
x2 = 0.4028 | 1.01
x2 = 0.5015 | 0.944
x2 = 0.6123 | 0.867
x2 = 0.7055 | 0.81
x2 = 0.8268 | 0.742
x2 = 0.9132 | 0.698

Cc1ccccc1[N+](=O)[O-] + Cc1ccccc1C
308.15 K, 101.33 kPa
Conditions | viscosity [mPa·s]
x2 = 0.1023 | 1.548
x2 = 0.2014 | 1.392
x2 = 0.3006 | 1.262
x2 = 0.4018 | 1.143
x2 = 0.5041 | 1.027
x2 = 0.6102 | 0.928
x2 = 0.7028 | 0.85
x2 = 0.8056 | 0.773
x2 = 0.9008 | 0.709

— the CheMixHub viscosity set
